Laboratory results from article PMC6100415, “Hepatic Metabolism of Sakuranetin and Its Modulating Effects on Cytochrome P450s and UDP-Glucuronosyltransferases” (Molecules : A Journal of Synthetic Chemistry and Natural …, 2018).

Key:
[1] = UDPGA-dependent metabolic stability in dog liver microsomes; type: in vitro ADME; conditions: for Amount Remaining at 30 min (%): dog liver microsomes; for half-life at 100 µM / CLint scaled at 100 µM: dog, liver microsomes, pH 7.4, dog liver microsomes; for CLint scaled at 100 µM: read-out: CLint, hepatic
Description: (§1) Metabolic stability was measured by monitoring the amount of parent compound that remained in an incubation mixture at designated incubation time points. For the phase I metabolism study, SKN (100 μM) was incubated with liver microsomes (1 mg/mL, rat, mouse, and dog; and 0.5 mg/mL, human), and an NADPH-generation cocktail consisting of nicotinamide adenine dinucleotide phosphate (NADP^+, 1 mM), glucose-6-phosphate (5 mM), glucose-6-phosphate dehydrogenase (1 unit/mL), and MgCl2 (10 mM) in potassium phosphate buffer (0.1 M, pH 7.4) in a total volume of 1 mL. To study phase II glucuronide conjugative metabolism, uridine 5′-diphosphoglucuronic acid (UDPGA) (2 mM) was added as a cofactor. The mixture was incubated in a shaking water bath, and the enzyme reaction was initiated by the addition of NADP^+, UDPGA, or both. Aliquots (100 μL) were removed at 0, 5, 15, 30, 45, and 60 min, and the reaction was terminated by adding two volumes of ice-cold methanol. […] The half-life of SKN was obtained by plotting the remaining amount of SKN against time using Prism 3.0 software (GraphPad, La Jolla, CA, USA). Hepatic intrinsic clearance (CLint, hepatic) was calculated using the following formula [20]:CLint, hepatic = (0.693/t1/2) × (g liver weight/kg body weight) × (mL incubation/mg of microsomal protein) × (mg microsomal protein concentration/g of liver)
(§2) The DAD was set at 280 nm.

[2] = NADPH-dependent phase I metabolic stability in rat liver microsomes; type: in vitro ADME
Description: as §1, §2

[3] = NADPH-dependent phase I metabolic stability in dog liver microsomes; type: in vitro ADME
Description: as §1, §2

CYP2C9 [4] = biological target: T1, CYP2C9 (Homo sapiens, UniProt P11712); assay: CYP inhibition in human liver microsomes, diclofenac 4′-hydroxylation (DCHY); conditions: CYP2C9, DCHY, SKN 10 μM, 15 min pre-incubation
T1 sequence (P11712 whole entry): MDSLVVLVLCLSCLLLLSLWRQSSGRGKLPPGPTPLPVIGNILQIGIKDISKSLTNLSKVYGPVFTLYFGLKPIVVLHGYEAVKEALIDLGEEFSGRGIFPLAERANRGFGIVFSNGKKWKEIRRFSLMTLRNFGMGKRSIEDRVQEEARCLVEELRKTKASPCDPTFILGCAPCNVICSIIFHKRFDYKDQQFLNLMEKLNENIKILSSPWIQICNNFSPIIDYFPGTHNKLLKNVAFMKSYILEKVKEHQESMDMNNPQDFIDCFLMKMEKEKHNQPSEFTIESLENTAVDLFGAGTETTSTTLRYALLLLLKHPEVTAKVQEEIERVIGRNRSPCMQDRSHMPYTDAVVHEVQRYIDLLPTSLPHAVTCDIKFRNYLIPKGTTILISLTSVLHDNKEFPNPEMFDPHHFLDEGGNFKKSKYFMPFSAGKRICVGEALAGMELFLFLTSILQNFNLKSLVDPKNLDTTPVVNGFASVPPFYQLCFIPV
Description: (§3) The formation of a metabolite from a CYP isozyme-specific phenotyping reaction (Table 4) was monitored. Each substrate (200 μM), along with SKN (10 μM), was incubated with human liver microsomes (0.5 mg/mL) and an NADPH-generating system in 0.1 M potassium phosphate buffer (pH 7.4) at 37 °C for 60 min in a total volume of 200 μL in a shaking water bath. The metabolic reaction was initiated by adding NADP^+ (1 mM) and stopped by adding 10 μL of trichloroacetic acid. In some experiments, the microsomes were pre-incubated with SKN for 15 min prior to the addition of the cofactor, in order to determine the time-dependent inhibitory effect. […] In contrast, co-incubation refers to experiments in which microsomes and cofactors were incubated in the presence of SKN. After centrifugation of incubation samples at 12,000× g for 15 min at 4 °C, the supernatant (20 μL) was injected into an HPLC-DAD system to analyze the metabolites formation (Supplementary Materials).
(§4) The DAD was set at 248 nm for phenacetin O-deethylation (PCOD), 298 nm for bupropion hydroxylation (BPHY), 276 nm for diclofenac 4′-hydroxylation (DCHY), 230 nm for tolbutamide 6-hydroxylation (TOLHY), 280 nm for dextromethorphan O-demethylation (DEXOD), and 250 nm for testosterone 6β-hydroxylation (TSTHY) and testosterone β-D-glucuronidation (TSTG).

[5] = test system: CYP isozymes (all isozyme-specific reactions); assay: CYP inhibition in human liver microsomes, all isozyme-specific reactions; type: in vitro ADME; conditions: pH 7.4, SKN 10 μM, read-out: inhibitory effect on the formation of any CYP isozyme-specific metabolites
Text: as §2

CYP2C9 [6] = biological target: T1, CYP2C9; assay: CYP inhibition in human liver microsomes, tolbutamide 6-hydroxylation (TOLHY); conditions: CYP2C9, TOLHY, SKN 10 μM
Description: as §3, §4

Amount Remaining at 30 min (%) ([1]; NADPH +): 0.0%
Amount Remaining at 30 min (%) ([1]; NADPH −): 42.4%
half-life at 100 µM ([1]; NADPH +): 5.8 min
CLint scaled at 100 µM ([1]; NADPH +): 300 mL/min/kg
half-life at 100 µM ([1]; NADPH −): 24.2 min
CLint scaled at 100 µM ([1]; NADPH −): 71.4 mL/min/kg
half-life at 100 µM ([2]; pH 7.4, rat liver microsomes): 10.1 min
CLint scaled at 100 µM ([2]; pH 7.4, rat liver microsomes, read-out: CLint, hepatic): 124 mL/min/kg
Amount Remaining at 30 min (%) ([2]; rat liver microsomes 1 mg/mL, SKN 100 μM): 29.0%
Amount Remaining at 30 min (%) ([3]; dog liver microsomes 1 mg/mL, SKN 100 μM): 18.5%
amount of SKN remaining after 60 min of incubation ([3]; dog liver microsomes, 60 min): 18.5%
half-life at 100 µM ([3]; pH 7.4, dog liver microsomes): 2.7 min
CLint scaled at 100 µM ([3]; pH 7.4, dog liver microsomes, read-out: CLint, hepatic): 641 mL/min/kg
% Inhibition in Pre-Incubation (CYP2C9 [4]): 8.7 ± 1.4%
inhibition at 60 min, 10 µM [5]: ≤ 20%
% Inhibition in Pre-Incubation (CYP2C9 [6]; 15 min pre-incubation): 10.1 ± 1.2%
% Inhibition in Co-Incubation (CYP2C9 [6]; human liver microsomes): 2.0 ± 0.6%
SMILES: COc1cc(O)c2c(c1)OC(c1ccc(O)cc1)CC2=O (racemic) [SKN, (+/−) 7-O-methylnaringenin]
